In brackets after ≈: the same amount, converted by molar mass.
Columns and labels:
[1] = test system: Aspergillus ustus; assay: Antifungal activity against Aspergillus ustus; assay type: functional
[2] = Cmin in patient with invasive pulmonary aspergillosis at 9.2 mg/kg, iv administered every 12 hrs measured after 8 days; assay type: ADME, organism-based; parameters: dose 9.2 mg/kg, route intravenous; conditions: human, in vivo, read-out: Cmin

## C[C@@H](c1ncncc1F)[C@](O)(Cn1cncn1)c1ccc(F)cc1F [VORICONAZOLE]
[1]
  MIC: 4 µg/mL (≈ 11.5 µM)
[2]
  concentration at 192 h: 1170 ng/mL

— ChEMBL document CHEMBL1649140, “Accelerated metabolism of voriconazole and its partial reversal by cimetidine” (Antimicrob Agents Chemother, 2009)
